Key:
gastric secretion (HCl) = experiment: Inhibition of gastric secretion (HCl) in the Shay rat over 4 h; format: in vivo; conditions: rats; for ED25 / ED50: Rattus norvegicus, po, perorally; for ED25: dose reducing HCl secretion (4 h) by 25% vs control; for ED50: dose reducing HCl secretion (4 h) by 50% vs control; for Gastric secretion: % inhibition of HCl secretion: after administration of the antiulcerous ED50, 4 h
Description: (§1) In these experiments, the compounds according to the invention were compared with prior art compounds (A-D) of UK Patent Application GB No. 2 082 580. The compounds investigated are numbered as follows:
(§2) The influence of the compounds according to the invention on gastric lesion formation induced by pyloric ligature (4 h; so-called Shay rat) and oral administration of 100 mg/kg of acetylsalicylic acid, and the gastric secretion (HCl) in the course of 4 h in rats is shown in the following table.
(§3) *ED25 und ED50 = dose which reduces the lesion index or the HCl secretion
(§4) (4h) in the rat stomach by 25 and, respectively, 50% in the treated group
(§5) in comparison with the control group.
**after administration of the antiulcerous ED50.
(§6) Ulcers are caused in rats which have been fasted for 24 hours (female, 180-200 g, 4 animals per cage on a high grid) by pyloric ligature (under diethyl ether anesthesia) and oral administration of 100 mg/10 ml/kg of acetylsalicylic acid. The substances to be tested are administered orally (10 ml/kg) one hour before the pyloric ligature. The wound is closed by means of Michel clamps. 4 hours thereafter, the animals are sacrificed under ether anesthesia by Atlas dislocation and resection of the stomach. The stomach is opened longitudinally and attached to a cork plate, after the amount of gastric juice secreted (volume) and later its HCl content (titration with sodium hydroxide solution) have first been determined; the number and size (=diameter) of the ulcers present are determined under a stereomicroscope at 10-fold magnification. The product of the degree of severity (according to the following points scale) and number of ulcers serves as the individual lesion index.
(§7) The reduction in the average lesion index of each treated group compared with the control group (=100%) serves as a measure of the antiulcerogenic effect.

[1] = tested on: gastric lesion formation (rat stomach); experiment: Antiulcerogenic action / protective effect on the stomach (modified Shay rat: pyloric ligature plus oral acetylsalicylic acid); format: in vivo; conditions: rats, perorally, 1 h before pyloric ligature, 100 mg/kg acetylsalicylic acid orally, dose reducing lesion index by 50% vs control, 4 h, read-out: Protective effect on the stomach: Inhibition of the lesion index, ED50
Description: as §1, §2, §3, §4, §5
The antiulcerogenic action was tested by the so-called Shay rat method:
as §6
Ulcer diameter 0.1-1.4 mm: 1
as §7

| SMILES | ED25 (gastric secretion (HCl)) | ED50 (gastric secretion (HCl)) | Gastric secretion: % inhibition of HCl secretion (gastric secretion (HCl)) | ED50 [1] |
| --- | --- | --- | --- | --- |
| COc1ccnc(C[S+]([O-])c2nc3cc4c(cc3[nH]2)OC(F)(F)C(F)(Cl)O4)c1C (stereo not drawn) [Serial No. 10, 6-Chloro-6,7,7-trifluoro-6,7-dihydro-2-[(4-methoxy-3-methyl-2-pyridyl)methylsulfinyl]-1H-[1,4]-dioxino[2,3-f]benzimidazole] | 0.4 mg/kg | 0.7 mg/kg | 25% | 0.4 mg/kg |
| COc1ccnc(C[S+]([O-])c2nc3cc4c(cc3[nH]2)OC(F)(F)O4)c1C (stereo not drawn) [Serial No. 2, 2,2-difluoro-6-[(4-methoxy-3-methyl-2-pyridyl)methylsulfinyl]-5H-[1,3]-dioxolo-[4,5-f]benzimidazole] | < 0.3 mg/kg | 0.6 mg/kg | 30% | 0.4 mg/kg |
| COc1ccnc(C[S+]([O-])c2nc3cc4c(cc3[nH]2)OC(F)C(F)(F)O4)c1 (stereo not drawn) [Serial No. 3, 6,6,7-Trifluoro-6,7-dihydro-2-[(4-methoxy-2-pyridyl)methylsulfinyl]-1H-[1,4]-dioxino[2,3-f]benzimidazole] | 0.5 mg/kg | 1.4 mg/kg | 23% | 0.45 mg/kg |
| COc1ccnc(C[S+]([O-])c2nc3cc4c(cc3[nH]2)OC(F)C(F)(F)O4)c1C (stereo not drawn) [Serial No. 5, 6,6,7-trifluoro-6,7-dihydro-2-[(4-methoxy-3-methyl-2-pyridyl)methylsulfinyl]-1H-[1,4]-dioxino[2,3-f]benzimidazole] | < 0.3 mg/kg | 0.6 mg/kg | 35% | 0.35 mg/kg |
| COc1ccnc(CSc2nc3cc4c(cc3[nH]2)OCO4)c1 [Serial No. A, 6-[(4-Methoxy-2-pyridyl)methylthio]-5H--[1,3]-dioxolo-[4,5-f]benzimidazole, reference compound] | > 10 mg/kg | – | – | > 10 mg/kg |
| COc1ccnc(CSc2nc3cc4c(cc3[nH]2)OC(F)(F)C(F)O4)c1 (stereo not drawn) [Serial No. 4, 6,6,7-Trifluoro-6,7-dihydro-2-[(4-methoxy-2-pyridyl)-methylthio]-1H--[1,4]-dioxino[2,3-f]benzimidazole] | 1 mg/kg | 1.7 mg/kg | 25% | 0.6 mg/kg |
| COc1ccnc(C[S+]([O-])c2nc3cc4c(cc3[nH]2)OC(F)(F)O4)c1 (stereo not drawn) [Serial No. 1, 2,2-Difluoro-6-[(4-methoxy-2-pyridyl)methylsulfinyl]-5H--[1,3]-dioxolo[4,5-f]benzimidazole] | 0.6 mg/kg | 0.9 mg/kg | 25% | 0.6 mg/kg |
| COc1ccnc(CSc2nc3cc4c(cc3[nH]2)OC(F)C(F)(F)O4)c1C (stereo not drawn) [Serial No. 6, 6,6,7-trifluoro-6,7-dihydro-2-[(4-methoxy-3-methyl-2-pyridyl)methylthio]-1H-[1,4]-dioxino[2,3-f]benzimidazole] | 0.7 mg/kg | 1.4 mg/kg | 20% | 0.6 mg/kg |
| COc1ccnc(CSc2nc3cc4c(cc3[nH]2)OC(F)(F)O4)c1C [Serial No. 7, 2,2-difluoro-6-[(4-methoxy-3-methyl-2-pyridyl)methylthio]-5H-[1,3]-dioxolo[4,5-f]benzimidazole] | 0.6 mg/kg | > 1 mg/kg | 25% | 0.6 mg/kg |
| COc1ccnc(CSc2nc3cc4c(cc3[nH]2)OCCO4)c1 [Serial No. C, 6,7-Dihydro-2-[(4-methoxy-2-pyridyl)methylthio]-1H--[1,4]-dioxino[2,3-f]benzimidazole, reference compound] | > 30 mg/kg | > 30 mg/kg | 19% | 30 mg/kg |
| COc1c(C)cnc(C[S+]([O-])c2nc3cc4c(cc3[nH]2)OC(F)C(F)(F)O4)c1C (stereo not drawn) [Serial No. 9, 6,6,7-trifluoro-6,7-dihydro-2-[(4-methoxy-3,5-dimethyl-2-pyridyl)methylsulfinyl]-1H-[1,4]-dioxino[2,3-f]benzimidazole] | 0.7 mg/kg | 1 mg/kg | 15% | 0.5 mg/kg |
| COc1cc(C[S+]([O-])c2nc3cc4c(cc3[nH]2)OC(F)(F)O4)ncc1C (stereo not drawn) [Serial No. 8, 2,2-difluoro-6-[(4-methoxy-5-methyl-2-pyridyl)methylsulfinyl]-5H-[1,3]-dioxolo[4,5-f]benzimidazole] | 1 mg/kg | 2.5 mg/kg | 17% | 0.5 mg/kg |
| COc1ccnc(C[S+]([O-])c2nc3cc4c(cc3[nH]2)OCO4)c1 (stereo not drawn) [Serial No. B, 6-[(4-Methoxy-2-pyridyl)methylsulffinyl]-5H--[1,3]-dioxolo-[4,5-f]benzimidazole, reference compound] | – | – | – | ~5 mg/kg |
| COc1ccnc(C[S+]([O-])c2nc3cc4c(cc3[nH]2)OCCO4)c1 (stereo not drawn) [Serial No. D, 6,7-Dihydro-2-[(4-methoxy-2-pyridyl)methylsulfinyl]-1H--[1,4]-dioxino[2,3-f]benzimidazole, reference compound] | > 30 mg/kg | > 30 mg/kg | 0% | 30 mg/kg |

Reference: patent publication US4560693A, “[1,3]-Dioxolo[4,5-f]benzimidazoles and [1,4]-dioxino[2,3-f]benzimidazoles” (Byk Gulden Lomberg Chemische Fabrik GmbH, priority 1983, dated 1985)
